# System: whole kidney samples, approximately 11,000 murine genes
# Test: Kidney gene expression on oligonucleotide arrays in murine model of autoimmune kidney disease (untreated, rapamycin-treated, anti-B7-treated)
# Format: in vivo, NZB/NZW F1 mice
# Settings: Example 2(A); normalized = difference in expression of less than five versus untreated asymptomatic mice
# Protocol: NZB/NZW F1 (B/W) mice develop an autoimmune kidney disease that is analogous to human systemic erythematosus. Mice, aged at intervals from 12 weeks (asymptomatic) to 42 weeks (diseased) were chosen to mimic the clinical presentation of patients with established SLE. By seven months of age, mice begin to develop nephritis characterized by proteinuria, anti-DNA antibody production and histopathologic changes in the kidney. […]
# Labeled RNA was prepared from clones containing a T7 RNA polymerase promoter site by incorporating labeled ribonucleotides in an in vitro transcription (IVT) reaction. […] RNA was concentrated and then quantitated by spectrophotometry. […]
# The labeled and fragmented RNA probes were diluted in 1×MES buffer, BIO948, Bio C, B cre, 100 μg/ml herring sperm DNA, and 50 μg/ml acetylated BSA. […] When biotin-labeled RNA was used, the hybridized RNA was stained with a streptavidin-phycoerythrin conjugate (Molecule Probes, Eugene, Oreg.) prior to reading. […] The arrays were again washed and stained with streptavidin SSPE-T prior to being reading. The arrays were read using a scanning confocal microscope made for Affymetrix by Molecular Dynamics (commercially available through Affymetrix, Santa Clara, Calif.). […]
smiles,measurement,value
CO[C@H]1C[C@@H]2CC[C@@H](C)[C@@](O)(O2)C(=O)C(=O)N2CCCC[C@H]2C(=O)O[C@H]([C@H](C)C[C@@H]2CC[C@@H](O)[C@H](OC)C2)CC(=O)[C@H](C)/C=C(\C)[C@@H](O)[C@@H](OC)C(=O)[C@H](C)C[C@H](C)/C=C/C=C/C=C/1C [rapamycin],number of genes not normalized by rapamycin treatment,23 genes

# — patent US20060188921A1, “Methods for diagnosing and treating systemic lupus erythematosus disease and compositions thereof” (Wyeth, priority 2001, published 2006)
